Measured values taken from patent publication US6984636B2, “Mitochondrially targeted antioxidants” (Medical Research Council, priority 2002, dated 2006).

How the values were obtained:
superoxide = experiment: Standard assay for superoxide dismutase activity (xanthine oxidase/hypoxanthine, acetylated cytochrome c reduction, A550); format: biochemical
Protocol: To see if Compound 9 is catalytically active as a superoxide dismutase mimetic, a standard assay for superoxide dismutase activity was used (Boveris, A., Methods Enzymol., 105, 429-435 (1984), which is incorporated herein by reference).
The incubation conditions were 50 mM KPi, pH 7.5; 1 mM EGTA; 100 μM DTPA (N,N-bis(2-bis[carboxymethyl]amino)ethyl) glycine) at 30° C. to which was added 0.1 unit/ml xanthine oxidase and acetylated cytochrome c (50 μM). After incubation for 2 min, the background rate was measured for 1 min then hypoxanthine (100 μM) was added to initiate superoxide formation (point X in FIG. 2), which provides a continual flux. The rate of superoxide formation is measured by the rate at which the superoxide reduced cytochrome c(III) to cytochrome c(II), which leads to an increase in light absorption at 550 nm (A550). SOD activity causes the superoxide to be converted to hydrogen peroxide thereby decreasing the rate of reduction of cytochrome c (III). In FIG. 2, the initial rate of reduction of cytochrome c (III) can be seen (line A) and on addition of compound 9 (250 nM) this rate of cytochrome c reduction was decreased due to consumption of the superoxide by compound 9 (line B).
The above experiments were repeated using various concentrations of Compound 9 and the native superoxide dismutase (Cu, Zn SOD) in order to compare their activity.

rat liver mitochondria = experiment: Accumulation of Compound 9 in isolated mitochondria (ion selective electrode); format: in vitro ADME
Protocol: Liver mitochondria were prepared from female Wistar rats by homogenisation followed by differential centrifugation in medium containing 250 mM sucrose, 10 mM Tris-HCL (pH 7.4) and 1 mM EGTA (Chappell, J. B. and Hansford, R. G., In: Subcellular components: preparation and fractionation (Ed. Birnie G D), pp. 77-91. Butterworths, London, 1972, which is incorporated herein by reference.)
An ion selective electrode for compound 9 was prepared by standard procedures (Kamo, N., et al., Journal of Membrane Biology, 49, 105-121 (1979) and Davey, G. P., et al., Biochemical Journal, 288, 439-443 (1992), which are incorporated herein by reference), and activated by soaking in 100 μM compound 9 for 1-3 days. The electrodes were then inserted into an air-tight chamber of an oxygen electrode enabling simultaneous measurement of oxygen consumption and compound 9, as shown in FIG. 1.
The rat liver mitochondria (2 mg protein/ml) were suspended in KCl medium (120 mM KCl, 10 mM HEPES, pH 7.2, 1 mM EGTA) with additions of rotenone (5 μg/ml) and nigericin (0.6 nM) in a stirred 3 ml system at 30° C. Compound 9 was titrated in 1 μM increments (from 650 to 730s on FIG. 1) and the response of the electrode measured over 0-5 μM of Compound 9. This response was logarithmic with respect to the concentration of Compound 9.
To energise the mitochondria, the respiratory substrate succinate (5 mM) was added (at 800s on FIG. 1). These conditions are known to generate a mitochondrial membrane potential of about 180 mV (Burns, et al., Arch Biochem Biophys, 332,60-68 (1995); Burns and Murphy, Arch Biochem Biophys, 339, 33-39 (1997), which are incorporated herein by reference).

xanthine oxidase = experiment: Control experiments for inhibition of xanthine oxidase; format: biochemical
xanthine oxidase, sequence (P47989 whole entry, species assumed): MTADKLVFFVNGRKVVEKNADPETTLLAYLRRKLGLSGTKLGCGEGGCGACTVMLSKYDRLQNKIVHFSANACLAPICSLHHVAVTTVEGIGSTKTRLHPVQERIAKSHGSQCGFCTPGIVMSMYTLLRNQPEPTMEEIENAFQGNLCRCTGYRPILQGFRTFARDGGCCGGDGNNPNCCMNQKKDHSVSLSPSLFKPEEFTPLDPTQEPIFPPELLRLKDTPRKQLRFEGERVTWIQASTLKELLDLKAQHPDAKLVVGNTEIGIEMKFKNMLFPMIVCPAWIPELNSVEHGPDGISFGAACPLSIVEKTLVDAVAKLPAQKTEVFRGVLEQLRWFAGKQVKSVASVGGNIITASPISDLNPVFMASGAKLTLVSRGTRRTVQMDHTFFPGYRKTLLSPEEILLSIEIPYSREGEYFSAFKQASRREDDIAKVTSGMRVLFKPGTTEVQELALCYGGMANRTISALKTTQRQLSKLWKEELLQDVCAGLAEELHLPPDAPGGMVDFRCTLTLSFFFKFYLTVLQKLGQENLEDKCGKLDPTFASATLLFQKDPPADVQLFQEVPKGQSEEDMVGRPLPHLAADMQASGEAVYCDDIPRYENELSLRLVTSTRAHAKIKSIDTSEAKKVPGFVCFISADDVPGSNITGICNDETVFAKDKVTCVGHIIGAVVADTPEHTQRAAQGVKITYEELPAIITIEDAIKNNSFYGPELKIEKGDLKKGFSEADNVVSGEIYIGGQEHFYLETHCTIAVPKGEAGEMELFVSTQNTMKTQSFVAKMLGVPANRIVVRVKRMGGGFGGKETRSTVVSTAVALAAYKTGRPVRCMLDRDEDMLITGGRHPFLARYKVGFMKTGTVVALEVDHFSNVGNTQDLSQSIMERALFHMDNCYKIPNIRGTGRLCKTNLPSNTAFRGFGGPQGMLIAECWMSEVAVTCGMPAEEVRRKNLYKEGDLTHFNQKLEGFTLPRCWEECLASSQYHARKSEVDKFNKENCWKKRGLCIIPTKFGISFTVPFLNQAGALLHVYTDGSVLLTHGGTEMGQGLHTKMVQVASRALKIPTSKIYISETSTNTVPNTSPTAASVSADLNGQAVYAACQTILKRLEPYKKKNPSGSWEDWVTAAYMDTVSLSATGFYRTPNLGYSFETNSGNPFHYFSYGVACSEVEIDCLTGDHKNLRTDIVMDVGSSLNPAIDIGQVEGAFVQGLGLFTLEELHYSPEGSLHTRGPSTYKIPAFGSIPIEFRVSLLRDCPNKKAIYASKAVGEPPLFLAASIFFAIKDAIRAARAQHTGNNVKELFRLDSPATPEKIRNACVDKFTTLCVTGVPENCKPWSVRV

rate of cytochrome c reduction (superoxide; compound 9 at 250 nM, FIG. 2 line B versus control line A): decreased
SOD activity of 1 nmol compound expressed as activity of the native enzyme CuZnSOD (superoxide; per 1 nmol Compound 9, various concentrations, FIG. 3): about 1 unit
concentration of the compound within mitochondria (rat liver mitochondria; energised (succinate 5 mM) rat liver mitochondria 2 mg protein/ml, KCl medium pH 7.2, 30° C., 0-5 μM compound): about 1.25 nmol/mg protein
accumulation by energised mitochondria (rat liver mitochondria; energised rat liver mitochondria, membrane potential about 180 mV): ~500 fold
concentration of compound outside the mitochondria after energising with succinate (rat liver mitochondria; succinate 5 mM added, FIG. 1): falls rapidly
inhibition of the activity of xanthine oxidase (xanthine oxidase): does not inhibit
SMILES: [Cl-].[Cl-].[Cl-].[Mn+2].c1ccc([P+](CCCSc2cc3nc(c2)CNC2CCCCC2NCCNC2CCCCC2NC3)(c2ccccc2)c2ccccc2)cc1 [Compound 9, Manganese(II) dichloro((4R, 9R, 14R, 19R)-24-(3-triphenylphosphoniopropane-1-thio)-3, 10, 13, 20, 26-pentaazatetracyclo[20.3.1.0.^4,9.0^14,19]hexacosa-1 (26),-22(23),24-triene) chloride]
time for reversal of accumulation on addition of the uncoupler FCCP (rat liver mitochondria; FCCP 332 nM added to dissipate the membrane potential): < 10 s
